For experiment [1], the target named is HDAC1 (Homo sapiens, UniProt Q13547). Nature of the experiment: biochemical HDAC assay with ZMAL substrate, HDAC1. As to conditions: read-out: HDAC1 IC50.
The test system of experiment [2] is Cal27 cells. Put plainly: whole cell HDAC assay with Boc-Lys. Type of experiment: cell-based. As to conditions: Homo sapiens, CAL-27, read-out: HDAC (Cal27) IC50.
Experiment [3] concerns Cal27 cells. Nature of the experiment: MTT cytotoxicity assay. Type of experiment: cell-based. As to conditions: Homo sapiens, CAL-27, read-out: MTT (Cal27) IC50.
For experiment [4], the system named is Cal27 cells. Put plainly: western blotting of α-tubulin and histone H3 acetylation in Cal27. The class given is cell-based, human. As to conditions: western blot, Cal27, compared to control. (In general: In western blotting, separated proteins are transferred to a membrane and probed.)

Chain of HDAC1 (Q13547 whole entry): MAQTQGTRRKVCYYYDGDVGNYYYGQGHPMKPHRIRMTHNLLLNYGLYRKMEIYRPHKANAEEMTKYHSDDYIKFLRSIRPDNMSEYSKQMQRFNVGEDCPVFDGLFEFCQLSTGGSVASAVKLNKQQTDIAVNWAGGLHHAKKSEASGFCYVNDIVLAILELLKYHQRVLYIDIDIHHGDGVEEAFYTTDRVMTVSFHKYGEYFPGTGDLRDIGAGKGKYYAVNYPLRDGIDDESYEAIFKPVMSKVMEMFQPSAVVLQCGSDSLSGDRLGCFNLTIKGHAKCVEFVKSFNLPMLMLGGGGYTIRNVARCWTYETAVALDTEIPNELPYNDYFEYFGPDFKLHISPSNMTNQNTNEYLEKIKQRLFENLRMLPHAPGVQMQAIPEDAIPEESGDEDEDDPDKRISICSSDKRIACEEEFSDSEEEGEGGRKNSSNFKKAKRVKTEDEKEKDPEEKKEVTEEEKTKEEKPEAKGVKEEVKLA

The term IC50 denotes the concentration that inhibits the measured activity by half. Turning to `O=C(NO)c1ccc(CC(=O)N(CCO)c2ccccc2)cc1` [HPOB], the IC50 in experiment [1] was determined as 2100 nM.

For the molecule `CCCCN(Cc1ccc(C(=O)NO)cc1)C(=O)Nc1ccccc1` [Nexturastat A], the values for the IC50 in experiment [2] and in experiment [3] were 5.87 µM and 7.75 µM, respectively.

As to `CN1CCc2c(c3ccccc3n2Cc2ccc(C(=O)NO)cc2)C1` [Tubastatin A], the IC50 amounted to 11.4 µM in experiment [2] and 5.34 µM in experiment [3]. In experiment [4], the “acetylation of α-tubulin” value is “preferential hyperacetylation of α-tubulin”.

For the molecule `O=C(CCCCCCC(=O)Nc1ccccc1)NO` [vorinostat], in experiment [4], the “acetylation of histone H3” value was “increase in acetylation” and the “acetylation of α-tubulin” value is listed as “increase in acetylation”.

For the origin of these results see publication PMC5999327 (Organic letters, 2018).
